Literature values, collected in US7410699B2, “Finely particulate composite containing carbon compound encapsulated in a polymer micelle of a block copolymer” (Japan Science and Technology Agency, priority 2003, dated 2008).

Conditions: Journal of Colloid and Interface Science, 263, (2003), 1-3

## c12c3c4c5c1c1c6c7c2c2c8c3c3c9c4c4c%10c5c5c1c1c6c6c%11c7c2c2c7c8c3c3c8c9c4c4c9c%10c5c5c1c1c6c6c%11c2c2c7c3c3c8c4c4c9c5c1c1c6c2c3c41 [fullerene]
  water-solubility (amount of solubilized fullerene): 21.0 µg/mL
